Data from patent US6479435B1, “Diaryl ethers and processes for their preparation and herbicidal and desiccant compositions containing them” (ISK Americas Incorporated, priority 1997, dated 2002).

Tests used:
Assay type in all cases: in vivo
[1] = test system: soybean (Glycine max L., var. Pella 86, SOY); assay: Post-emerge greenhouse test, crop damage rating; settings: 14 days after application
Method in brief: (§1)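 Scores use a 0 (no damage) to 100 (complete kill) scale, taken 14 days after a foliar spray. Acetone solutions with 0.25% v/v non-ionic surfactant were applied by track sprayer at 187 l/ha and 63-1000 g ai/ha to bottom-watered 2-3 leaf plants.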

[2] = test system: common ragweed (Ambrosia artemisiifolia L., AMBEL); assay: Post-emerge greenhouse herbicide test, phytotoxicity rating; settings: 14 days after application
Method in brief: as §1

[3] = test system: field corn (Zea mays L., var. Dekalb 535, CORN); assay: Pre-emerge greenhouse test, crop damage rating; settings: 14 days after application, rating scale 0-100
Method in brief: (§2)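 Visual 0–100 injury rating (100 = all plants dead) taken 14 days after treatment. Rates of 125–1000 g ai/ha in acetone, 187 l/ha, were sprayed onto soil one day post-sowing; pots were surface-watered to incorporate, then bottom-watered.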

[4] = test system: upland rice (Oryza sp., var.Tebonnet, RICE); assay: Pre-emerge greenhouse test, crop damage rating; settings: 14 days after application, rating scale 0-100
Method in brief: as §2

[5] = test system: field corn (Zea mays L., var. Dekalb 535, CORN); assay: Post-emerge greenhouse test, crop damage rating; settings: 14 days after application
Method in brief: as §1

[6] = test system: upland rice (Oryza sp., var.Tebonnet, RICE); assay: Post-emerge greenhouse test, crop damage rating; settings: 14 days after application
Method in brief: as §1

[7] = test system: green foxtail (Setaria viridis, SETVI); assay: Post-emerge greenhouse herbicide test, phytotoxicity rating; settings: 14 days after application
Method in brief: as §1

[8] = test system: velvetleaf (Abutilon theophrasti, ABUTH); assay: as above; settings: 14 days after application
Method in brief: as §1

[9] = test system: redroot pigweed (Amaranthus retroflexus, AMARE); assay: as above; settings: 14 days after application
Method in brief: as §1

[10] = test system: lambsquarters (Chenopodium album, CHEAL); assay: as above; settings: 14 days after application
Method in brief: as §1

[11] = test system: Johnsongrass (Sorghum halepense, SORHA); assay: as above; settings: 14 days after application
Method in brief: as §1

[12] = test system: large crabgrass (Digitaria sanguinalis, DIGSA); assay: as above; settings: 14 days after application
Method in brief: as §1

[13] = test system: ivyleaf morningglory (Ipomoea hederacea, IPOHE); assay: as above; settings: 14 days after application
Method in brief: as §1

[14] = test system: barnyardgrass (Echinochloa crusgalli, ECHCG); assay: as above; settings: 14 days after application
Method in brief: as §1

[15] = test system: soybean (Glycine max L., var. Pella 86, SOY); assay: Pre-emerge greenhouse test, crop damage rating; settings: 14 days after application, rating scale 0-100
Method in brief: as §2

[16] = test system: green foxtail (Setaria viridis, SETVI); assay: Pre-emerge greenhouse herbicide test, phytotoxicity rating; settings: 14 days after application, rating scale 0-100
Method in brief: as §2

[17] = test system: sicklepod (Cassia obtusifolia, CASOB); assay: as above; settings: 14 days after application, rating scale 0-100
Method in brief: as §2

[18] = test system: velvetleaf (Abutilon theophrasti, ABUTH); assay: as above; settings: 14 days after application, rating scale 0-100
Method in brief: as §2

[19] = test system: redroot pigweed (Amaranthus retroflexus, AMARE); assay: as above; settings: 14 days after application, rating scale 0-100
Method in brief: as §2

[20] = test system: common ragweed (Ambrosia artemisiifolia L., AMBEL); assay: as above; settings: 14 days after application, rating scale 0-100
Method in brief: as §2

[21] = test system: lambsquarters (Chenopodium album, CHEAL); assay: as above; settings: 14 days after application, rating scale 0-100
Method in brief: as §2

[22] = test system: Johnsongrass (Sorghum halepense, SORHA); assay: as above; settings: 14 days after application, rating scale 0-100
Method in brief: as §2

[23] = test system: large crabgrass (Digitaria sanguinalis, DIGSA); assay: as above; settings: 14 days after application, rating scale 0-100
Method in brief: as §2

[24] = test system: ivyleaf morningglory (Ipomoea hederacea, IPOHE); assay: as above; settings: 14 days after application, rating scale 0-100
Method in brief: as §2

[25] = test system: barnyardgrass (Echinochloa crusgalli, ECHCG); assay: as above; settings: 14 days after application, rating scale 0-100
Method in brief: as §2

## N#Cc1cccnc1Oc1cc(-n2nnn(CCCF)c2=O)c(Cl)cc1Cl [Compound 6-5]
[1]; 63 g al/ha
  SOY crop damage rating (0-100): 20
[1]; 500 g al/ha
  SOY crop damage rating (0-100): 30
[2]; 63 g al/ha
  AMBEL phytotoxicity rating (0-100): 0
[2]; 500 g al/ha
  AMBEL phytotoxicity rating (0-100): 0
[3]; 125 g ai/ha
  crop damage rating CORN: 20
[3]; 500 g ai/ha
  crop damage rating CORN: 20
[4]; 125 g ai/ha
  crop damage rating RICE: 20
[4]; 500 g ai/ha
  crop damage rating RICE: 10
[5]; 63 g al/ha
  CORN crop damage rating (0-100): 0
[5]; 500 g al/ha
  CORN crop damage rating (0-100): 0
[6]; 63 g al/ha
  RICE crop damage rating (0-100): 20
[6]; 500 g al/ha
  RICE crop damage rating (0-100): 30
[7]; 63 g al/ha
  SETVI phytotoxicity rating (0-100): 0
[7]; 500 g al/ha
  SETVI phytotoxicity rating (0-100): 30
[8]; 63 g al/ha
  ABUTH phytotoxicity rating (0-100): 0
[8]; 500 g al/ha
  ABUTH phytotoxicity rating (0-100): 20
[9]; 63 g al/ha
  AMARE phytotoxicity rating (0-100): 40
[9]; 500 g al/ha
  AMARE phytotoxicity rating (0-100): 80
[10]; 63 g al/ha
  CHEAL phytotoxicity rating (0-100): 20
[10]; 500 g al/ha
  CHEAL phytotoxicity rating (0-100): 80
[11]; 63 g al/ha
  SORHA phytotoxicity rating (0-100): 0
[11]; 500 g al/ha
  SORHA phytotoxicity rating (0-100): 20
[12]; 63 g al/ha
  DIGSA phytotoxicity rating (0-100): 0
[12]; 500 g al/ha
  DIGSA phytotoxicity rating (0-100): 10
[13]; 63 g al/ha
  IPOHE phytotoxicity rating (0-100): 0
[13]; 500 g al/ha
  IPOHE phytotoxicity rating (0-100): 0
[14]; 63 g al/ha
  ECHCG phytotoxicity rating (0-100): 0
[14]; 500 g al/ha
  ECHCG phytotoxicity rating (0-100): 0
[15]; 125 g ai/ha
  crop damage rating SOY: 10
[15]; 500 g ai/ha
  crop damage rating SOY: 0
[16]; 125 g ai/ha
  phytotoxicity rating SETVI: 0
[16]; 500 g ai/ha
  phytotoxicity rating SETVI: 100
[17]; 125 g ai/ha
  phytotoxicity rating CASOB: 70
[17]; 500 g ai/ha
  phytotoxicity rating CASOB: 50
[18]; 125 g ai/ha
  phytotoxicity rating ABUTH: 0
[18]; 500 g ai/ha
  phytotoxicity rating ABUTH: 90
[19]; 125 g ai/ha
  phytotoxicity rating AMARE: 90
[19]; 500 g ai/ha
  phytotoxicity rating AMARE: 100
[20]; 125 g ai/ha
  phytotoxicity rating AMBEL: 0
[20]; 500 g ai/ha
  phytotoxicity rating AMBEL: 50
[21]; 125 g ai/ha
  phytotoxicity rating CHEAL: 90
[21]; 500 g ai/ha
  phytotoxicity rating CHEAL: 100
[22]; 125 g ai/ha
  phytotoxicity rating SORHA: 30
[22]; 500 g ai/ha
  phytotoxicity rating SORHA: 70
[23]; 125 g ai/ha
  phytotoxicity rating DIGSA: 30
[23]; 500 g ai/ha
  phytotoxicity rating DIGSA: 70
[24]; 125 g ai/ha
  phytotoxicity rating IPOHE: 40
[24]; 500 g ai/ha
  phytotoxicity rating IPOHE: 40
[25]; 125 g ai/ha
  phytotoxicity rating ECHCG: 0
[25]; 500 g ai/ha
  phytotoxicity rating ECHCG: 0
